Experimental data: patent publication US12510533B2, “Methods for treating multiple myeloma and the use of companion biomarkers for 4-(4-(4-(((2-(2,6-dioxopiperidin-3-yl)-1-oxoisoindolin-4-yl)oxy)methyl)benzyl)piperazin-1-yl)-3-fluorobenzonitrile” (Celgene Corporation, priority 2018, dated 2025)

How the values were obtained:
[1] = tested on: interferon gamma (IFN-γ); assay: IFN-γ production by TCR-activated healthy PBMCs; assay type: cell-based, human; details: 24 hours
Procedure: (§1) FIG. 21A-FIG. 21C illustrate that Compound 2 is a potent inducer of effector cytokines. […] (FIG. 21A) IL-2, (FIG. 21B) IFN-γ, and (FIG. 21C) TNF-α. Data shown are an average from three or four donors and are represented as fold change over DMSO control; error bars represent standard error of the mean (SEM).
(§2) The immunomodulatory activity of Compound 2 on T cell receptor (TCR)-activated healthy PBMCs was assessed. […] This increased in cytokine secretion was evident as early as 24 hours after introduction of Compound 2 with the peak of the effector cytokine production induced by Compound 2 being 5.5-fold for IL-2, 4.5-fold for interferon gamma (IFN-γ), and 2-fold for tumor necrosis factor alpha (TNF-α) above the vehicle control (FIG. 21A-FIG. 21C, respectively).

[2] = tested on: tumor necrosis factor alpha (TNF-α); assay: TNF-α production by TCR-activated healthy PBMCs; assay type: cell-based, human; details: 24 hours
Procedure: as §1, §2

[3] = tested on: NCI-H929; assay: Tumor cell lysis by anti-CD3-activated, compound-treated PBMCs, co-culture with untreated NCI-H929; assay type: cell-based; details: Homo sapiens; lenalidomide-sensitive NCI-H929, untreated; 24-hour co-culture
[4] = biological target: Ikaros (Homo sapiens, UniProt Q13422+Q96SW2); assay: Ikaros level by flow cytometry in ex vivo cultures of healthy donor bone marrow CD34+ cells (neutrophil maturation); assay type: cell-based; set-up: The effects of Compound 2 on the degradation of Ikaros in CD4+ and CD8+ T cells; endogenous in cells; host or cells: CD4+ and CD8+ T cells of healthy donors; CD34+ bone marrow cells of healthy donors; CD3+ T cells of multiple myeloma patients
Procedure: Ex vivo cultures of bone marrow (BM) CD34^+ cells from healthy donors (HD) were used to investigate the effect of Compound 2 on neutropenia. […] Therefore, we monitored the effects of Compound 2 on mature neutrophils.
Ikaros protein level was analyzed by flow cytometry after each exposure period, and also at Days 19, 21, and 23 corresponding to 3, 5, and 7 days following the last exposure, respectively. CD34^+ cells derived from healthy donor bone marrow were exposed to different concentrations of Compound 2 and different incubation schedules. The percentage of Ikaros content (normalized to the DMSO control) following Compound 2 exposure at concentrations of 1, 10, and 100 nM for 2, 4, and 6 hours on each of 1, 2, or 3 consecutive days starting on Day 14 were measured. At the end of the exposure period, Compound 2 was removed and cells were incubated in the absence of Compound 2 (recovery period). Ikaros was measured by flow cytometry after incubation with Compound 2 (Days 14 to 16) and during recovery on Days 19, 21, and 23. Ikaros levels were reduced during Compound 2 exposure and recovered following drug withdrawal in a concentration-dependent manner with no significant differences noted in association with different exposure schedules (FIG. 13). Ikaros levels began returning to normal after at least 3 days following washout, pre-dating full recovery of maturation of late-stage neutrophil precursors.
To further explore the role of Ikaros in relationship to the maturation of neutrophil progenitors, Ikaros protein levels were analyzed by flow cytometry after each exposure and every other day following the last exposure to Compound 2. […] After 3 days of exposure to Compound 2, the recovery of Ikaros began in a concentration-dependent manner just 24 hours after drug washout and returned to control levels after 10 days (FIG. 14; FIG. 16B). With 5 days of exposure to Compound 2, recovery of Ikaros started on Day 17, three days after drug washout (FIG. 15). […]

Ikaros, sequence (Q13422 whole entry): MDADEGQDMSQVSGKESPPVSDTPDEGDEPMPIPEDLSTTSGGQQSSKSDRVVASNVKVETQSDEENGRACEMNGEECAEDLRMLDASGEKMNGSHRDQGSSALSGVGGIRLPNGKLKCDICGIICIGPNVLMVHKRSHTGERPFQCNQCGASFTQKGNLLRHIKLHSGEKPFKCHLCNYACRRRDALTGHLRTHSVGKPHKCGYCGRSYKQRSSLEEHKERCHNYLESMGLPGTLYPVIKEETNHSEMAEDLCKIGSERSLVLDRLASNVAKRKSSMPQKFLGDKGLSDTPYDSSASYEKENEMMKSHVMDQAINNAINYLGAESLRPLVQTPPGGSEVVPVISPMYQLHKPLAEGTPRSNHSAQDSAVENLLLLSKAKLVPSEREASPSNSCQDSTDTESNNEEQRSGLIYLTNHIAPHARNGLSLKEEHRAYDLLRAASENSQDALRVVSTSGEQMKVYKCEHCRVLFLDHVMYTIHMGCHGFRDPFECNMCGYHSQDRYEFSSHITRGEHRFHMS
Ikaros, sequence (Q16531 2-1140, further chain): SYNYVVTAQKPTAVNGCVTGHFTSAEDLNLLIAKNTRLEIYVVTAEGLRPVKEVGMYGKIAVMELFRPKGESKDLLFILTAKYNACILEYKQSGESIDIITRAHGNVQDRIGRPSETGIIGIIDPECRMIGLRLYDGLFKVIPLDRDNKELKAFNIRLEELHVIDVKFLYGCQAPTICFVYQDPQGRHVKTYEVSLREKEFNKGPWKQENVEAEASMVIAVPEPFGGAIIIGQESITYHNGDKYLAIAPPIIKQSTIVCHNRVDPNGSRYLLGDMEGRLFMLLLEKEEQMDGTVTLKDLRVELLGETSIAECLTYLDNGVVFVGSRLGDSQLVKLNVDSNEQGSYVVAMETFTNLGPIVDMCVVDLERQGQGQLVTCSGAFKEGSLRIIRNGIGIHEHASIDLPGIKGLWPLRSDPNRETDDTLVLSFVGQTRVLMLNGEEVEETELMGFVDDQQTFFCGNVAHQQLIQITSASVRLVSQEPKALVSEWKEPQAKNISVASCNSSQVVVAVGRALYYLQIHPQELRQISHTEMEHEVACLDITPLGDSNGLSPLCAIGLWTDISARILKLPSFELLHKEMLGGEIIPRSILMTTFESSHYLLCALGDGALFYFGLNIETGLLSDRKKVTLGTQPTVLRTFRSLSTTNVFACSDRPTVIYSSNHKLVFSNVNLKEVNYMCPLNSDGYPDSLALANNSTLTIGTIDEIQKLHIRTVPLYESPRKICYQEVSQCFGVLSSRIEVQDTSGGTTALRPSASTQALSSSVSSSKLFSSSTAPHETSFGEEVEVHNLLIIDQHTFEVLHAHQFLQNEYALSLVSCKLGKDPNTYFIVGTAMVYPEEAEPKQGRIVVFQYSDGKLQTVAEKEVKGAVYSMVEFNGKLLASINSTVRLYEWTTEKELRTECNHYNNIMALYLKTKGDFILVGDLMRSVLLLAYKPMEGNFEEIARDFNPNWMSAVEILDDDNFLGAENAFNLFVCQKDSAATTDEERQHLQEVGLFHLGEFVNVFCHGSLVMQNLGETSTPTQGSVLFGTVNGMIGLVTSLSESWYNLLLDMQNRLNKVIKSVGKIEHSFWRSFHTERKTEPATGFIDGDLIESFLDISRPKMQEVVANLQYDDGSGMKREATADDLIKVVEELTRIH
Ikaros, sequence (Q96SW2 whole entry): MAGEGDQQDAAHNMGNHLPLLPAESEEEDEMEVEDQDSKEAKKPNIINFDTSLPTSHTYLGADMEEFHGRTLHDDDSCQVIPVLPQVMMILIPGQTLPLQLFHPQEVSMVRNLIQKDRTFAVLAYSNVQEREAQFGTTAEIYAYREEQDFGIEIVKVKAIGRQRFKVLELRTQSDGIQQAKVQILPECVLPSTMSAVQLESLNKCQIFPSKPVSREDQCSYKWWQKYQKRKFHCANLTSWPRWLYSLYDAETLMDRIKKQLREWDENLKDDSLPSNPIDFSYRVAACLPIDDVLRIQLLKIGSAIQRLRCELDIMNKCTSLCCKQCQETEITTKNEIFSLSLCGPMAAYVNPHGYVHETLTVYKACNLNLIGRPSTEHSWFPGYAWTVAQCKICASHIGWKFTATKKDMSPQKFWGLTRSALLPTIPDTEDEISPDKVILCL

N#Cc1ccc(N2CCN(Cc3ccc(COc4cccc5c4CN([C@H]4CCC(=O)NC4=O)C5=O)cc3)CC2)c(F)c1 [Compound 2, (S)-4-(4-(4-(((2-(2,6-dioxopiperidin-3-yl)-1-oxoisoindolin-4-yl)oxy)methyl)benzyl)piperazin-1-yl)-3-fluorobenzonitrile]
peak IFN-γ production above the vehicle control [1]: 4.5 fold | peak TNF-α production above the vehicle control [2]: 2 fold | IC50 [3]: 5 nM | time following washout at which Ikaros levels began returning to normal ([4]; 2, 4, 6 hour exposures on 1 to 3 consecutive days from Day 14): at least 3 days | time for Ikaros to return to control levels ([4]; 3 days of 6-hour exposures): 10 days | Ikaros degradation after one exposure ([4]; all concentrations (1, 10, 100 nM) and all exposure schedules): fully degraded
